Read-outs that look alike come from different tables or passages of the source.
Legend:
cyclooxygenase = test: In vitro effect on [14C]arachidonic acid metabolism in a cell-free homogenate of murine pulmonary tissue; type: biochemical, CBA mice; conditions: compound 10^−4 M, 37° C., 30 minutes
Description: Studies of arachidonic acid metabolism was carried out on females CBA mice who where fed a standard vivarium fodder. Animals (mice) were sacrificed, lungs were extracted, homogenized in a glass homogenizer manufactured by the firm “Wheaton” (USA) at 4° C. in 10 volumes of 0.05 M Tris-HCl buffer. Aliquots (0.5 ml) of supernatant were incubated in 0.5 μCi [1-C^14]-arachidonic acid [C^14]-AA, “Amersham”, England; specific activity 50-60 μCi/mmole) at 37° C. for 30 minutes. Non-metabolized [αC^14]-AA and products of metabolism thereof were extracted in 20 volumes of chloroform and methanol mixture (1:1) in extraction efficacy not less than 90% assessed using [C^14]-PGF2α. [C^14]-AA and metabolites thereof were separated and identified using TLC (the plates Kieselgel 60 of the “Merck” firm, Germany) using as an organic phase, the system of solvents (ethylacetate, isooctane, acetic acid, water—110:50:20:100) and labeled standards. Densitometry of autoradiochromograms obtained on the X-ray film X-Omat AR (“Kodak”, USA) and HS 11 (“ORWO”, Germany), was performed on the densiscan KS 3 (“Kipp and Zonnen”, Holland). Quantitative analysis of individual eicosanoids was carried out using radiometry of fractions obtained by high-performance liquid chromatography (the HPLC-system of the “Gilson” form, France; the column ZORBAX C8 of the “Du Pont” firm, USA) and by elution of spots on TLC-plates. The tested compounds were administered at concentration 10^−4 M.

[1] = test system: "acetic contortions" in mice; test: Analgetic activity on the model "acetic contortions"; type: in vivo, white mongrel mice; conditions: dose 10 mg/kg (table title)
"hot plate" test in mice = test: Analgetic activity on the model "hot plate"; type: in vivo, white mongrel mice; conditions: 10 mg/kg; for response vs control in vivo at 10 mg/kg / change in vivo at 10 mg/kg: Mus musculus; for response vs control in vivo at 10 mg/kg: percent of background, read-out: Latent time of NT (%); for change in vivo at 10 mg/kg: read-out: Analgesia (%)
gastric mucosa of rats = test: Ulcerogenic effect on gastric mucosa; type: in vivo, outbreed rats; conditions: 30 mg/kg once intragastrally, at 24 hours, M ± m
Description: The tests were carried out on females of outbreed rats weighing 300-320 grams. The compounds tested were administered once intragastrally at a dose 30 mg/kg to rats deprived of feed for 24 hours prior to the test. Animals in the control group were administered distilled water in the same volume. At 24 hours the animals were sacrificed and stomachs were extracted. An empty stomach was filled with 2% formalin solution and it was placed into a beaker with formalin. 30 minutes later, the stomach was opened along the great curvature, expanded on a slide, fixed and washed with distilled water. Using the magnifying glass MBS-9 (8-fold magnification) length and width of gastric mucosa defects was measured and area in mm^2 was calculated (1 division of the magnifying glass ruler=0.1 mm). Ulcerogenic effect of a substance was assessed by ulcerous lesion area of gastric mucosa according to the technique presented in Rukovodstvo po experimental'nomu (doklinicheskomu) izucheniju novykh pharmacologicheskikh veshchestv (the Guide on Experimental (pre-clinical) Study of Novel Pharmacological Substances)./Moscow. “Remedium” publishers. 2000, 398 pages.

[2] = test system: mice in the model of hypoxic hypoxia with hypercapnia; test: Hypoxic hypoxia with hypercapnia in a hermetic volume; type: in vivo; conditions: for Duration of hypoxia (life span), M ± m: control 25.6 ± 0.6
Description: In order to imitate acute oxygen insufficiency the hypoxia model with hypercapnia in a hermetic volume was used (Luk'yanova L. D., Gatsura V. V., Pastushenkov L. V. Metodicheskiye recomendatsii po experimental'nomu izucheniju preparatov, predlagajemykh dlya klinicheskogo isuchenija v kachestve antihypoxicheskikh sredsyv (Methodological recommendations on experimental study of preparations proposed for clinical examination as anti-hypoxic agents). Moscow. 1960. P. 1-19]. […] weighing 27-29 grams were individually placed into 260 ml glass jars which were hermetically closed. As the animals consume oxygen, its concentration in the vessel lowers that results in death of the animals. Life span of the mice in minutes was recorded.

O=C(CCc1ccc(O)cc1)NCCc1ccccc1 [Compound IX, 3-(p-hydroxyphenyl)-propionylphenylethylamine]
Prostanoids (cyclooxygenase; b308 reads these as % cyclooxygenase inhibition): −33 | 6-keto-PGF1α (cyclooxygenase; change): −30 | AA (arachidonic acid) (cyclooxygenase; change): +47 | PGE2 (cyclooxygenase; change): −38 | PGF2α (cyclooxygenase; change): −27 | TXB2 (cyclooxygenase; change): −40 | inhibition in vivo at 10 mg/kg ([1]; Mus musculus, ip, 0.25 h, read-out: Analgetic effect (%)): 68% | response vs control in vivo at 10 mg/kg ([1]; Mus musculus, ip, 0.25 h, read-out: C, % to the control): 32% | C ± m (the number of contortions for 15 minutes) ([1]; 60 minutes prior to acetic acid): 11.8 ± 2.9 | latent time of nociception threshold, M ± m ("hot plate" test in mice; 30 minutes post administration): 8.4 ± 1.23 s | latent time of nociception threshold, M ± m ("hot plate" test in mice; 60 minutes post administration): 7.36 ± 1.04 s | latent time of nociception threshold, M ± m ("hot plate" test in mice; 120 minutes post administration): 9.83 ± 2.52 s | latent time of nociception threshold, M ± m ("hot plate" test in mice; 240 minutes post administration): 7.72 ± 0.24 s | response vs control in vivo at 10 mg/kg ("hot plate" test in mice; 0.5 h, 30 minutes): 203% | change in vivo at 10 mg/kg ("hot plate" test in mice; 0.5 h, 30 minutes): 103% | response vs control in vivo at 10 mg/kg ("hot plate" test in mice; 1 h, 60 minutes): 178% | change in vivo at 10 mg/kg ("hot plate" test in mice; 1 h, 60 minutes): 77.8% | response vs control in vivo at 10 mg/kg ("hot plate" test in mice; 2 h, 120 minutes): 237% | change in vivo at 10 mg/kg ("hot plate" test in mice; 2 h, 120 minutes): 137% | response vs control in vivo at 10 mg/kg ("hot plate" test in mice; 4 h, 240 minutes): 186% | change in vivo at 10 mg/kg ("hot plate" test in mice; 4 h, 240 minutes): 86.5% | Area of ulcerous lesion (gastric mucosa of rats): 0 mm^2 | % change from the control ([2]; 10 mg/kg): 0% | Duration of hypoxia (life span), M ± m ([2]; 10 mg/kg): 25.3 ± 0.8 min | Duration of hypoxia (life span), M ± m ([2]; 50 mg/kg): 32.6 ± 2.6 min

Source: US8309766B2 (Obschestvo S. Organichennoi Otvetstvennostiyu …, priority 2005, dated 2012)
